Experimental data reported in patent US20250009841A1, “Methods of Diagnosing and Managing Bleeding Disorders” (Emory University, priority 2023, published 2025).

B1: abciximab (antibody, chains of the INN, looked up, V domains shown)
VH: EVQLQQSGTVLARPGASVKMSCEASGYTFTNYWMHWVKQRPGQGLEWIGAIYPGNSDTSYIQKFKGKAKLTAVTSTTSVYMELSSLTNEDSAVYYCTLYDGYYVFAYWGQGTLVTVSA
VL: EIVLTQSPVTLSVTPGDSVSLSCRASRDISNNLHWFQQTSHESPRLLIKYASQSMSGIPSRFSGSGSGTDFTLSINSVETEDFGMYFCQQTNSWPYTFGGGTKLEIK

Test system: healthy donor platelets
Assay: Monoclonal antibody contraction experiments on the platelet contraction cytometer
Type: cell-based, human
Settings: 2.5 μg/mL monoclonal antibody
Description: Blood was drawn into acid-citrate-dextrose (ACD) solution 2 (VWR) and was subsequently centrifuged at 150 G for 15 min without brake and the resulting platelet rich plasma (PRP) was centrifuged again with an additional 10% ACD by volume at 900 G for 5 min without brake. The supernatant, platelet poor plasma, was discarded or utilized to isolate patient polyclonal IgG antibodies. The platelet pellet was resuspended into HEPES modified buffer and was gel filtered into this same buffer using a gel filtration column. Platelets were then diluted to 2 million/mL prior to contraction cytometry to reduce paracrine signaling and minimize platelet aggregate formation.
Each contraction cytometer contains large arrays of fibrinogen microdots pairs that are patterned onto a polyacrylamide hydrogel with a stiffness of about 75 k Pa. […] These values for microdot size and spacing ensured that platelets preferentially attached to the microdots and were able to spread to neighboring microdot in the microdot pair and contract. […]
Platelet contraction was imaged on a confocal microscope using a 20×/0.8 NA lens. […] Images were analyzed using a script which calculated the center-to-center distance between fibrinogen microdots. […] Traction forces (T) of individual platelets were calculated as: T=2πGa (xs−xf)/2−v. […]

| Molecule | effect on platelet contractile force (15 minutes prior to thrombin activation) | effect on platelet adhesion (fibrinogen microdots) |
| --- | --- | --- |
| PAC-1 | lowers contractile forces |  |
| B1 |  | blocks adhesion |
